Experimental data taken from patent publication US8653143B2, “Use of panduratin derivative or Boesenbergia pandurata extract” (Newtree Co., Ltd., priority 2008, dated 2014).

What was measured:
Assay type in all cases: in vivo, C57BL/6 mice
[1] = test system: mice in which obesity is induced with a high-fat diet; assay: Body weight and food intake of high-fat diet obese mice treated with panduratin derivatives; conditions: for food intake, test group versus other groups: high-fat diet obese C57BL/6 mice; for body weight increase after 8 weeks: high-fat diet control about 32%
Description: (§1) Mice in which obesity is induced with a high-fat diet were selected as a model to investigate the obesity-relieving effect of panduratin A prepared in Example 2. 3-week-old C57BL/6 mice were accustomed for a week, and a high-fat diet (Product # D12492, Research Diet Inc., New Brunswick, N.J., USA) was provided for 6 weeks to induce obesity. Then, the mice were randomly divided into 3 groups, 12 per each group. For the test group, panduratin A suspended in 0.25% carboxymethyl cellulose was administered once a day at regular hours for 8 weeks, with an administration dose of 50 mg/kg body weight. For comparison, 0.25% carboxymethyl cellulose only (control) of the same amount as that for the test group or sibutramine suspended in 0.25% carboxymethyl cellulose (5 mg/kg body weight) was orally administered. Then, food intake and body weight of the mice were measured every week, for 8 weeks.
(§2) The effect of isopanduratin A prepared in Example 3 on body weight and body fat decrease was investigated in the same manner as in Examples 5 and 6. After administration for 8 weeks, there was no difference between the test group and other groups in food intake.
(§3) The effect of 4-hydroxypanduratin A prepared in Example 4 on body weight and body fat decrease was investigated in the same manner as in Examples 5 and 6. After administration for 8 weeks, there was no difference between the 4-hydroxypanduratin-administered test group and other groups in food intake.

[2] = test system: mice in which obesity is induced with a high-fat diet; assay: Body fat (abdominal, perirenal, epididymal) in high-fat diet obese mice treated with panduratin derivatives; conditions: administration for 8 weeks, same manner as panduratin A (50 mg/kg)
Procedure: as §1, with “3-week-old” for “Mice in which obesity is induced with a high-fat diet were selected as a model to investigate the obesity-relieving effect of panduratin A prepared in Example 2. 3-week-old”, “After administration for 8 weeks,” for “Then, food intake and body weight of”, “fasted” for “measured every week,”, “at least 12 hours. After cutting open the abdomen, perirenal fat and epididymal fat were taken out, washed with physiological saline, dried, and then weighed.” for “8 weeks.”
as §2, §3

[3] = test system: mice in which obesity is induced with a high-fat diet; assay: Body weight and food intake of high-fat diet obese mice treated with Boesenbergia pandurata extract; conditions: sibutramine 5 mg/kg orally for 8 weeks; high-fat diet control about 33%
Description: as §1, with “of the Boesenbergia pandurata extract” for “of panduratin A”, “Example 1. 4-week-old” for “Example 2. 3-week-old”, “groups, 8” for “groups, 12”, “group, Boesenbergia pandurata extract” for “group, panduratin A”, “of 200” for “of 50”

[4] = test system: mice in which obesity is induced with a high-fat diet; assay: Serum total cholesterol, triglyceride, total lipid and leptin in high-fat diet obese mice; conditions: sibutramine 5 mg/kg orally for 8 weeks
Procedure: 3-week-old C57BL/6 mice were accustomed for a week, and a high-fat diet (Product # D12492, Research Diet Inc., New Brunswick, N.J., USA) was provided for 6 weeks to induce obesity. Then, the mice were randomly divided into 3 groups, 12 per each group. For the test group, panduratin A suspended in 0.25% carboxymethyl cellulose was administered once a day at regular hours for 8 weeks, with an administration dose of 50 mg/kg body weight. For comparison, 0.25% carboxymethyl cellulose only (control) of the same amount as that for the test group or sibutramine suspended in 0.25% carboxymethyl cellulose (5 mg/kg body weight) was orally administered. After administration for 8 weeks, the mice were fasted for at least 12 hours. After cutting open the abdomen, blood was taken from the heart. The blood was centrifuged at 2,800 rpm at 4° C. for 30 minutes to separate the serum. The separated serum was stored at −70° C.
Total cholesterol level in the serum was determined by measuring absorbance at 500 nm using a standard enzyme assay kit. Serum triglyceride level was determined by measuring absorbance at 546 nm using a glycerol phosphate oxidase assay kit. Serum total lipid level was determined by measuring absorbance at 540 nm by the Frings method. Serum leptin level was determined by radioimmunoassay (RIA) using a mouse leptin RIA kit (Linco Research, Inc. USA).

[5] = 50 mg/kg body weight once a day for 8 weeks

SMILES | food intake, test group versus other groups [1, 5] | body weight increase after 8 weeks [1, 5] | decrease of epididymal fat weight as compared to the high-fat diet control group [2] | decrease of perirenal fat weight as compared to the high-fat diet control group [2] | body weight increase after 8 weeks ([1]; sibutramine 5 mg/kg body weight orally for 8 weeks) | body weight increase after 8 weeks [3] | total cholesterol level in the serum ([4]; control 140.73±16.47) | serum triglyceride level ([4]; control 154.36±27.02) | total lipid level in the serum ([4]; control 555.18±80.86)
CC(C)=CC[C@@H]1C(C)=CC[C@@H](c2ccccc2)[C@@H]1C(=O)c1c(O)cc(O)cc1O [4-hydroxypanduratin A] | no difference | ~13% | 46% | 33% |  |  |  |  | 
COc1cc(O)cc(O)c1C(=O)[C@@H]1[C@H](CC=C(C)C)C(C)=CC[C@H]1c1ccccc1 [isopanduratin A, (4,6-dihydroxy-2-methoxyphenyl)[3-methyl-2-(3-methylbut-2-enyl)-6-phenylcyclohex-3-enyl]methanone] | no difference | ~17% | 32% | 25% |  |  |  |  | 
CC(C)CC(N(C)C)C1(c2ccc(Cl)cc2)CCC1 (stereo not shown) [sibutramine] |  |  |  |  | about 20% | about 27% | 122.4 ± 22.6 mg/dL | 150.2 ± 20.19 mg/dL | 493.2 ± 111.9 mg/dL
